Test results: patent publication US11673910B2, “Macrolides with modified desosamine sugars and uses thereof” (Zikani Therapeutics, Inc., priority 2017, dated 2023)
In brackets after ≈: the same amount, converted by molar mass.

How the values were obtained:
Assay type in all cases: cell-based
E. coli strain MP-4 = assay: Broth dilution MIC determination (CLSI) against E. coli strain MP-4; conditions: Escherichia coli, MP4
In short: (§1)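 Broth dilution per CLSI guidance gave the MIC for each macrolide. Three activity tiers: MIC not above 4 mg/L (+++); between 8 and below 32 mg/L (++); 32 mg/L or more (+).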

[1] = system: A. baumannii strain MP-15; assay: Broth dilution MIC determination (CLSI) against A. baumannii strain MP-15; conditions: Acinetobacter baumannii, MP15
In short: as §1

[2] = system: P. aeruginosa strain MP-3; assay: Broth dilution MIC determination (CLSI) against P. aeruginosa strain MP-3; conditions: Pseudomonas aeruginosa, MP3
In short: as §1

[3] = system: K. pneumoniae strain MP-548; assay: Broth dilution MIC determination (CLSI) against K. pneumoniae strain MP-548; conditions: Klebsiella pneumoniae, MP548
In short: as §1

S. aureus strain MP-12 = assay: Broth dilution MIC determination (CLSI) against S. aureus strain MP-12; conditions: Staphylococcus aureus, MP12, strain MP-12
In short: as §1

Compound	MIC (E. coli strain MP-4) [µg/mL]	MIC [1] [µg/mL]	MIC [2] [µg/mL]	MIC [3] [µg/mL]	MIC (S. aureus strain MP-12) [µg/mL]
CC[C@H]1OC(=O)[C@@](C)(F)C(=O)[C@H](C)[C@@H](O[C@@H]2OC(COC/C=C/c3cncnc3)CC(N(C)C)C2O)[C@](C)(OC)C[C@@H](C)C(=O)[C@H](C)[C@H]2NC(=O)O[C@@]21C (stereo partly shown) [Compound 105]	≥ 32	≥ 32	≥ 32	≥ 32	≤ 4
CC[C@H]1OC(=O)C(C)C(=O)[C@H](C)[C@@H](OC2OC(C(=O)N(C)C3CC3)CC(N(C)C)C2O)[C@](C)(OC)C[C@@H](C)CN[C@H](C)[C@H]2NC(=O)O[C@@]21C (stereo partly shown) [Compound 168, 3-Descladinosyl-3-oxo-6-O-methyl-N9a-desmethyl-11,12-dideoxy-12,11-(oxycarbonylimino)-5′-desmethyl-5′-(N,N-cyclopropyl(methyl)carboxamido) Azithromycin]	≥ 32	≥ 32	≥ 32	≥ 32	≥ 32
CC[C@H]1OC(=O)C(C)C(=O)[C@H](C)[C@@H](OC2OC(CN(C)CCOC)CC(N(C)C)C2O)[C@](C)(OC)C[C@@H](C)CN[C@H](C)[C@H]2NC(=O)O[C@@]21C (stereo partly shown) [Compound 131, 3-Descladinosyl-3-oxo-6-O-methyl-N9a-desmethyl-11,12-dideoxy-12,11-(oxycarbonylimino)-6′-[N-(methyl)-2-methoxyethylamino]Azithromycin]	≤ 4	≥ 32	≥ 32	8 to 32 (≈ 11.4 to 45.7 µM)	≥ 32
CC[C@H]1OC(=O)C(C)C(=O)[C@H](C)[C@@H](OC2OC(CNCCF)CC(N(C)C)C2O)[C@](C)(OC)C[C@@H](C)CN[C@H](C)[C@H]2NC(=O)O[C@@]21C (stereo partly shown) [Compound 111, 3-Descladinosyl-3-oxo-6-O-methyl-N9a-desmethyl-11,12-dideoxy-12,11-(oxycarbonylimino)-6′-(2-fluoroethylamino) Azithromycin]	≤ 4	≥ 32	≥ 32	≤ 4	≥ 32
CO[C@]1(C)C[C@@H](C)CN[C@H](C)[C@H]2NC(=O)O[C@]2(C)[C@@H](C)OC(=O)C(C)C(=O)[C@H](C)[C@H]1OC1OC(CN(C)CC2CC2)CC(N(C)C)C1O (stereo partly shown) [Compound 156, 3-Desdadinosyl-3-oxo-6-O-methyl-N9a-desmethyl-11,12-dideoxy-12,11-(oxycarbonylimino)-6′-methylcyclopropylmethyl-13-methyl Azithromycin]	≥ 32	≥ 32	≥ 32	≥ 32	≥ 32
CC[C@H]1OC(=O)C(C)C(=O)[C@H](C)[C@@H](OC2OC(CN3CCOCC3)CC(N(C)C)C2O)[C@](C)(OC)C[C@@H](C)CN[C@H](C)[C@H]2NC(=O)O[C@@]21C (stereo partly shown) [Compound 132, 3-Descladinosyl-3-oxo-6-O-methyl-N9a-desmethyl-11,12-dideoxy-12,11-(oxycarbonylimino)-6′-(1-morpholino) Azithromycin]	≤ 4	≥ 32	≥ 32	8 to 32 (≈ 11.4 to 45.8 µM)	8 to 32 (≈ 11.4 to 45.8 µM)
CC[C@H]1OC(=O)C(C)C(=O)[C@H](C)[C@@H](OC2OC(CN(C)CC)CC(N(C)C)C2O)[C@](C)(OC)C[C@@H](C)CN[C@H](C)[C@H]2NC(=O)O[C@@]21C (stereo partly shown) [Compound 151, 3-Descladinosyl-3-oxo-6-O-methyl-N9a-desmethyl-11,12-dideoxy-12,11-(oxycarbonylimino)-6′-methylethylamino Azithromycin]	≤ 4	≥ 32	≥ 32	8 to 32 (≈ 11.9 to 47.7 µM)	≥ 32
CC[C@H]1OC(=O)C(C)C(=O)[C@H](C)[C@@H](O[C@@H]2O[C@H](CNCC3CC3)CC(N(C)C)[C@H]2O)[C@](C)(OC)C[C@@H](C)CN(C)[C@H](C)[C@H]2NC(=O)O[C@@]21C (stereo partly shown) [Compound 162, 3-Descladinosyl-3-oxo-6-O-methyl-11,12-dideoxy-12,11-(oxycarbonylimino)-6′-cyclopropylmethylamino Azithromycin]	≤ 4	≥ 32	≥ 32	8 to 32 (≈ 11.5 to 45.9 µM)	≥ 32
CC[C@H]1OC(=O)C(C)C(=O)[C@H](C)[C@@H](OC2OC(CNCC(=O)N(C)C)CC(N(C)C)C2O)[C@](C)(OC)C[C@@H](C)CN[C@H](C)[C@H]2NC(=O)O[C@@]21C (stereo partly shown) [Compound 117, 3-Descladinosyl-3-oxo-6-O-methyl-N9a-desmethyl-11,12-dideoxy-12,11-(oxycarbonylimino)-6′-(N—(N,N-dimethylacetamidyl)-amino) Azithromycin]	≥ 32	≥ 32	≥ 32	≥ 32	≥ 32
CC[C@H]1OC(=O)C(C)C(=O)[C@H](C)[C@@H](OC2OC(CNCC(=O)OC)CC(N(C)C)C2O)[C@](C)(OC)C[C@@H](C)CN[C@H](C)[C@H]2NC(=O)O[C@@]21C (stereo partly shown) [Compound 127, 3-Descladinosyl-3-oxo-6-O-methyl-N9a-desmethyl-11,12-dideoxy-12,11-(oxycarbonylimino)-6′-(methyl aminomethylcarboxylate) Azithromycin]	≤ 4	≥ 32	≥ 32	8 to 32 (≈ 11.4 to 45.7 µM)	≥ 32
CC[C@H]1OC(=O)C(C)C(=O)[C@H](C)[C@@H](OC2OC(CN(C)C(=O)C(C)(C)C)CC(N(C)C)C2O)[C@](C)(OC)C[C@@H](C)CN[C@H](C)[C@H]2NC(=O)O[C@@]21C (stereo partly shown) [Compound 170, 3-Descladinosyl-3-oxo-6-O-methyl-N9a-desmethyl-11,12-dideoxy-12,11-(oxycarbonylimino)-6′-(N-methyl-N-pivaloylamino) Azithromycin]	8 to 32 (≈ 11 to 44 µM)	≥ 32	≥ 32	≥ 32	≥ 32
CC[C@H]1OC(=O)[C@@]2(C)CCO[C@](C)(C[C@@H](C)CN[C@H](C)[C@H]3NC(=O)O[C@@]31C)[C@H](O[C@@H]1O[C@H](CNC34CC(C3)C4)C[C@H](N(C)C)[C@H]1O)[C@@H](C)C2=O [Compound 204]	≤ 4	8 to 32 (≈ 11.3 to 45.3 µM)	≥ 32	≤ 4	≤ 4
CC[C@H]1OC(=O)[C@@](C)(F)C(=O)[C@H](C)[C@@H](O[C@@H]2OC(COCCO)CC(N(C)C)C2O)[C@](C)(OC)C[C@@H](C)C(=O)[C@H](C)[C@H]2NC(=O)O[C@@]21C (stereo partly shown) [Compound 103]	≥ 32	≥ 32	≥ 32	≥ 32	≤ 4

Other lines, results leading:

MIC (E. coli strain MP-4) [µg/mL]	MIC [1] [µg/mL]	MIC [2] [µg/mL]	MIC [3] [µg/mL]	MIC (S. aureus strain MP-12) [µg/mL]	Compound
≤ 4	≥ 32	≥ 32	8 to 32 (≈ 11.7 to 46.7 µM)	≥ 32	CC[C@H]1OC(=O)C(C)C(=O)[C@H](C)[C@@H](OC2OC(CNC(C)(C)C)CC(N(C)C)C2O)[C@](C)(OC)C[C@@H](C)CN[C@H](C)[C@H]2NC(=O)O[C@@]21C (stereo partly shown) [Compound 110, 3-Descladinosyl-3-oxo-6-O-methyl-N9a-desmethyl-11,12-dideoxy-12,11-(oxycarbonylimino)-6′-tert-butylamino Azithromycin]
≤ 4	≥ 32	≥ 32	≤ 4	≥ 32	CC[C@H]1OC(=O)C(C)C(=O)[C@H](C)[C@@H](OC2OC(CNC3CCC3)CC(N(C)C)C2O)[C@](C)(OC)C[C@@H](C)CN[C@H](C)[C@H]2NC(=O)O[C@@]21C (stereo partly shown) [Compound 120, 3-Descladinosyl-3-oxo-6-O-methyl-N9a-desmethyl-11,12-dideoxy-12,11-(oxycarbonylimino)-6′-cyclobutylamino Azithromycin]
≤ 4	8 to 32 (≈ 11.7 to 46.9 µM)	≥ 32	8 to 32 (≈ 11.7 to 46.9 µM)	≥ 32	CO[C@]1(C)C[C@@H](C)CN[C@H](C)[C@H]2NC(=O)O[C@]2(C)[C@@H](C)OC(=O)C(C)C(=O)[C@H](C)[C@H]1OC1OC(CN(C)C2CCC2)CC(N(C)C)C1O (stereo partly shown) [Compound 155, 3-Descladinosyl-3-oxo-6-O-methyl-N9a-desmethyl-11,12-dideoxy-12,11-(oxycarbonylimino)-6′-methylcyclobutylamino-13-methyl Azithromycin]
≤ 4	≥ 32	≥ 32	8 to 32 (≈ 12 to 48 µM)	≥ 32	C#CCNCC1CC(N(C)C)C(O)[C@H](O[C@@H]2[C@@H](C)C(=O)C(C)C(=O)O[C@H](CC)[C@@]3(C)OC(=O)N[C@@H]3[C@@H](C)NC[C@H](C)C[C@@]2(C)OC)O1 (stereo partly shown) [Compound 53]
≤ 4	≥ 32	≥ 32	≥ 32	≥ 32	CC[C@H]1OC(=O)C(C)C(=O)[C@H](C)[C@@H](O[C@@H]2OC(CNCCc3ccc(F)cc3)CC(N(C)C)C2O)[C@](C)(OC)C[C@@H](C)CN[C@H](C)[C@H]2NC(=O)O[C@@]21C (stereo partly shown) [Compound 39]
≤ 4	≥ 32	≥ 32	≥ 32	≥ 32	CC[C@H]1OC(=O)C(C)C(=O)[C@H](C)[C@@H](O[C@@H]2OC(CN[C@@H](C)c3ccc(F)cc3)CC(N(C)C)C2O)[C@](C)(OC)C[C@@H](C)CN[C@H](C)[C@H]2NC(=O)O[C@@]21C (stereo partly shown) [Compound 32]
≤ 4	≥ 32	≥ 32	≤ 4	≥ 32	CC[C@H]1OC(=O)C(C)C(=O)[C@H](C)[C@@H](OC2OC(CCNC3CC3)CC(N(C)C)C2O)[C@](C)(OC)C[C@@H](C)CN[C@H](C)[C@H]2NC(=O)O[C@@]21C (stereo partly shown) [Compound 187, 3-Descladinosyl-3-oxo-6-O-methyl-N9a-desmethyl-11,12-dideoxy-12,11-(oxycarbonylimino)-5′-desmethyl-5′-(2-(aminocyclopropyl)ethyl) Azithromycin]
